Test results: patent US20250177473A1, “PEPTIDE REGULATORS OF METABOLISM” (Metabico, Inc., priority 2022, published 2025)

Assays:
TNF-α = TNF-α mRNA expression in LPS-induced primary mouse fibroblasts; assay type: cell-based; conditions: LPS 0.5 μg/mL 24 h; DLSKEPSISRE 0.05 mg/mL or metformin 1 mM
Method: The study was carried out in primary mouse fibroblasts. Isolation of fibroblasts was carried out with techniques described earlier (See Example 1). Fibroblasts were cultured for 3 days. The following stressors were applied separately: bacterial lipopolysaccharides (LPS), high glucose in the incubation medium, and serum-free incubation medium.
LPS is a major outer surface membrane component that induces an inflammatory response in cells.
Isolation of mRNA, synthesis of the first strand of cDNA, and RT-PCR were performed with techniques described earlier (See Example 1). Expression levels of IRS2, TNF-α, IL-6, and GSK3p (WNT-pathway) were analyzed.
The study was carried out in primary mouse fibroblasts. Isolation of fibroblasts was carried out with techniques described earlier (See Example 1). Incubation of fibroblasts with 100 μM individual peptides and 0.5 μg/mL LPS was carried out for 24 hours. Each treatment group was represented in two biological replicates.
Isolation of mRNA, synthesis of the first strand of cDNA, and RT-PCR were performed with techniques described earlier (See Example 1). Expression levels of RPL27, TNF-α, IL-6, and IRS2 genes were analyzed.

[1] = test system: C57BL/6 mice on a high-fat diet; assay: Chronic 28-day administration in HFD mice: bodyweight, water and feed consumption; assay type: in vivo, mouse; conditions: for Weekly food consumption / Weekly water consumption: Metformin 250 mg/kg p.o. daily
Method: A standard laboratory rodent pellet SNIFF RI/M-H V1534-30 (58% carbohydrates, 9% fat, 33% protein, 306 kcal/100 g) was given ad libitum to the control animals. For HFD groups, the high-fat feed was used. For 1 kg of feed, 610 g of ground SNIFF feed and 360 g of melted pork lard were taken, water (˜250 ml, 60-70° C.), 10 g of sodium chloride, 30 g of sodium glutamate were added. The mixture was brewed to a dough consistency, and food granules were formed. Then the granules were dried at 60-70° C. for 10-12 hours. The finished food for consumption was transferred to the animal-keeping area. The prepared food was stored at 4° C. for no more than 7 days. The approximate energy value of the HFD feed was 516 kcal/100 g (45% fat, 35% carbohydrates, 20% protein).
The metabolic syndrome was modeled by keeping animals on a HFD for 16 weeks. The control group was kept on a standard diet (STD) during this period. Animals had free access to feed and water located in the cage lid.
(§1) Groups of 10 animals were formed from the existing groups from Stage 2, with similar mean body weight (Table 6). The animals' bodyweight was monitored three times a week, water, and feed consumption—weekly. After the last treatment, the animals were euthanized for necropsy and their blood collected. The internal organs were examined for the presence of macro damage and weighed. The adipose tissue surrounding the epididymis was evaluated as a marker of obesity in animals. For histological examination, samples of adipose tissue and liver tissue were fixed in 10% formalin solution for further histological analysis.
The administration volume was 10 ml/kg for drugs administered i.p., 6 μl/animal for i.n. administration and 5 ml/kg for drugs administered p.o.
The animals were weighed weekly on weeks 1-16 of the experiment (1-120 days of the study), during the administration of the tested substances (121-148 days)—three times a week. The bodyweight of a hungry animal immediately before necropsy was taken to calculate the percentage of organ weight to body weight.
Each animal's food and water consumption was evaluated weekly by weighing the grid with food or a bottle of water before and after 24 hours.

[2] = test system: C57BL/6 mice on a high-fat diet; assay: Visceral fat weight and adipocyte histology after chronic administration in HFD mice; assay type: in vivo, mouse; conditions: four weeks
Method: as §1
After necropsy, the following internal organs were weighed: adrenal glands, kidneys, liver, pancreas, heart, spleen, and testicles.
During necropsy, the body's external state, internal surfaces, the cranial cavity, chest, abdominal and pelvic cavities with organs and tissues located in them, the neck with organs and tissues, the skeleton, and the musculoskeletal system were examined. The organs and tissues were fixed in 10% formalin. […]
Microscopic analysis was performed using a DMLA Leica transmitted light microscope (Germany), a Photometrics Cool SNAP cf video camera (USA), and Mekos software (Russia). […] One hundred adipocytes were measured on sections of the visceral fat samples in 15-20 random fields of view.

CN(C)C(=N)N=C(N)N [Metformin]
LPS-induced expression of TNF-α (TNF-α): similarly
Bodyweight during the period the test substance administration ([1]; Metformin 250 mg/kg p.o. daily from day 122, day 122): 34.3 ± 0.7 grams
Bodyweight during the period the test substance administration ([1]; Metformin 250 mg/kg p.o. daily from day 122, day 124): 33.9 ± 0.7 grams
Bodyweight during the period the test substance administration ([1]; Metformin 250 mg/kg p.o. daily from day 122, day 126): 33.4 ± 0.8 grams
Bodyweight during the period the test substance administration ([1]; Metformin 250 mg/kg p.o. daily from day 122, day 129): 32.9 ± 0.7 grams
Bodyweight during the period the test substance administration ([1]; Metformin 250 mg/kg p.o. daily from day 122, day 131): 33.1 ± 0.7 grams
Bodyweight during the period the test substance administration ([1]; Metformin 250 mg/kg p.o. daily from day 122, day 133): 33.1 ± 0.8 grams
Bodyweight during the period the test substance administration ([1]; Metformin 250 mg/kg p.o. daily from day 122, day 136): 32.4 ± 1.1 grams
Bodyweight during the period the test substance administration ([1]; Metformin 250 mg/kg p.o. daily from day 122, day 138): 32.2 ± 1.1 grams
Bodyweight during the period the test substance administration ([1]; Metformin 250 mg/kg p.o. daily from day 122, day 141): 32.9 ± 0.9 grams
Bodyweight during the period the test substance administration ([1]; Metformin 250 mg/kg p.o. daily from day 122, day 144): 33.2 ± 1.0 grams
Bodyweight during the period the test substance administration ([1]; Metformin 250 mg/kg p.o. daily from day 122, day 147): 33.5 ± 1.0 grams
Weekly food consumption ([1]; Week 1): 458.4 ± 55.4 kcal/kg/day
Weekly water consumption ([1]; Week 1): 0.1095 ± 0.0109 mL/min/kg
Weekly food consumption ([1]; Week 2): 758.4 ± 51.4 kcal/kg/day
Weekly water consumption ([1]; Week 2): 0.1199 ± 0.00944 mL/min/kg
Weekly food consumption ([1]; Week 3): 567.6 ± 21.3 kcal/kg/day
Weekly water consumption ([1]; Week 3): 0.1505 ± 0.0169 mL/min/kg
Weekly food consumption ([1]; Week 4): 709.4 ± 22.7 kcal/kg/day
Weekly water consumption ([1]; Week 4): 0.182 ± 0.0183 mL/min/kg
decrease in weight compared to values before substance administration ([1]; Metformin p.o., chronic 4-week): 7.6%
Animal body weight before the administration of the tested substances ([1]; day 112, baseline, group 5 Metformin p.o.): 36.94 ± 0.954 grams
loss of excess body weight (normalized to HFD control) ([1]; metformin chronic administration, compared with EPSI i.n.): comparable
decrease in average linear size of visceral fat adipocytes compared to HFD control ([2]; Metformin 250 mg/kg p.o.): 31%
visceral fat (adipose tissue surrounding the epididymis) weight ([2]; EPSI 5 mg/kg i.p. and i.n., metformin 250 mg/kg p.o., vs HFD control): statistically significant decrease
